Like-named read-outs stand apart in the source and are kept apart here.
Target: T1, human PI 3-kinase p120γ (Homo sapiens, UniProt P48736)
T1 construct: purchased Millipore Corporation
Test: PI 3-kinase p120γ enzyme activity inhibition test
Type: biochemical
Conditions: ATP 10.0 μM, PIP2-PS 5.0 μM, 30° C., 2 hours
Protocol: Using human PI 3-kinase p120γ (manufactured by Millipore Corporation) and a mixed micellized product (hereinafter abbreviated as PIP2-PS) of the substrate thereof, L-a-Phosphatidyl-D-myo-inositol-4,5-bisphosphate (product of Calbiochem, hereinafter abbreviated as PIP2), and L-a-Phosphatidyl-L-Serine (manufactured by Sigma, hereinafter abbreviated as PS), the compound of the present invention was examined for the inhibitory action on PI3 Kinase p120γ enzyme activity (Km=8.9 μM for ATP, Km=4.0 μM for PIP2-PS).
PIP2-PS was prepared by mixing 500 μM of PIP2 and 2.5 nM of PS and sonicating the mixture for 40 minutes while ice cooling to cause micellization. ATP (final concentration 10.0 μM), [γ-^33P] ATP (final concentration 10 μCi/ml), PIP2-PS (final concentration 5.0 μM) and DMSO solutions of the test compound in different concentrations (compound final concentration 1.0×10^−5 to 2.4×10^−12 M, DMSO final concentration 0.1%) were added to PI 3-kinase p120γ, stirred and reacted at 30° C. for 2 hours. Using Phospholipid-Coated FlashPlate Microplates, 96-Well and Phospholipid FlashPlate Coating Buffer (both manufactured by PerkinElmer Co., Ltd.), PIP2-PS and phosphorylated PIP2-PS were allowed to be adsorbed to the well wall of the plate and collected. The well was washed twice with PBS (Phosphate-Buffered Saline) and dried. The radioactivity was measured using Top Count NXT (manufactured by PerkinElmer Co., Ltd.), whereby the phosphorylated amount (a) of PIP2-PS at the time of compound addition was calculated.
The same procedure was carried out in the absence of the test compound and the phosphorylated amount (b) of PIP2-PS was calculated. Further, the same procedure was carried out in the absence of both of the substrate and the test compound, and the PIP2-PS phosphorylated amount (c) of the background was calculated.
The PI3 Kinase p120γ enzyme activity suppression rate of the compound was calculated by the following formula. Suppression rate (%)=[1−(a−c)/(b−c)]×100
More specifically, using the suppression rate by the test compound of different concentrations, the IC50 value was calculated according to the dose-dependent inhibition curve analyzed by a data analysis software Origin (Lightstone Corp.) and used as the inhibitory activity index.

[1] = read-out: PI3Kγ (IC50 value class)

T1 sequence (P48736 whole entry): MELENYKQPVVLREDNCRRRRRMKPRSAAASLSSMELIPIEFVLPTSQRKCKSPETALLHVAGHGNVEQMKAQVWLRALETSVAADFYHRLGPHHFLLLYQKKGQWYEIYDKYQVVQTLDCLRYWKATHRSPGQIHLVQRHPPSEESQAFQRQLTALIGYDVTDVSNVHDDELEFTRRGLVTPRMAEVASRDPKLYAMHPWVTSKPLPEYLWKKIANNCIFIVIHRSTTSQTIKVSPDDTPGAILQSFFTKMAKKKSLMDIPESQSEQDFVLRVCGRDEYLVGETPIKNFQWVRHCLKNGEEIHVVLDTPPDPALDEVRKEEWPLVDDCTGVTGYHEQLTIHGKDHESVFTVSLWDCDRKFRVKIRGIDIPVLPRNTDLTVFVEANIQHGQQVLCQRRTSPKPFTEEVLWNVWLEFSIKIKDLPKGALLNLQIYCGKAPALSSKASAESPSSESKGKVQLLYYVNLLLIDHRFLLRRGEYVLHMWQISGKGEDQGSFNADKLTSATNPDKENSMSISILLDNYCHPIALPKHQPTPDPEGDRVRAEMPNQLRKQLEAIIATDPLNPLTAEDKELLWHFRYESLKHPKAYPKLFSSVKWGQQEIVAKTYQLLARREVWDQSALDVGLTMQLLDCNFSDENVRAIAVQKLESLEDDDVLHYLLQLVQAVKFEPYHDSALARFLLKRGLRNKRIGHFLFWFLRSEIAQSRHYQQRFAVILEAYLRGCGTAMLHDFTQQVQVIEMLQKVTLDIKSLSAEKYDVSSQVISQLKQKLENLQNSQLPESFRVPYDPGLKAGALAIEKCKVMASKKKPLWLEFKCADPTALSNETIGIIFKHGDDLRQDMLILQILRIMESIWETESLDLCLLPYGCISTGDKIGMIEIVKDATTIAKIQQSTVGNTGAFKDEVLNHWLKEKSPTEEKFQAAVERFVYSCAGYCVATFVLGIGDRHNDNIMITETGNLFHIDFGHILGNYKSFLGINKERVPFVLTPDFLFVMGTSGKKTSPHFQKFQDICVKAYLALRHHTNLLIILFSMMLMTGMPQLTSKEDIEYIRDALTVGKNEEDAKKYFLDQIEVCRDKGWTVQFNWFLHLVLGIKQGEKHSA

SMILES | IC50 [1] [nM] | IC50 (read-out: IC50 value) [nM]
CNC(=O)c1noc(-c2sc(NC(C)=O)nc2C)n1 [Example 78] | 100 to 500 | –
CNCc1noc(-c2sc(NC(C)=O)nc2C)n1 [Example 79] | 500 to 10000 | –
CC(=O)Nc1nc(C)c(-c2nc(CC3CC3)no2)s1 [Example 80] | < 100 | –
CC(=O)Nc1nc(C)c(-c2nc(C(C)NS(C)(=O)=O)no2)s1 (stereo not shown) [Example 81] | 500 to 10000 | –
CC(=O)Nc1nc(C)c(-c2nc(CCC(C)C)no2)s1 [Example 82] | < 100 | 88
CC(=O)Nc1nc(C)c(-c2nc(C3CC3)no2)s1 [Example 83] | < 100 | –
COC(C)(C)Cc1noc(-c2sc(NC(C)=O)nc2C)n1 [Example 84, N-{5-[3-(2-methoxy-2-methylpropyl)-1,2,4-oxadiazol-5-yl]-4-methyl-1,3-thiazol-2-yl}acetamide] | 100 to 500 | –
CC(=O)Nc1nc(C)c(-c2nc(CC(C)(C)C(C)O)no2)s1 (stereo not shown) [Example 85] | < 100 | –
CC(=O)Nc1nc(C)c(-c2nc(CC(C)(C)C(C)=O)no2)s1 [Example 86] | < 100 | –
CC(=O)Nc1nc(C)c(-c2nc(N3CCOCC3)no2)s1 [Example 87, N-{4-methyl-5-[3-(morpholin-4-yl)-1,2,4-oxadiazol-5-yl]-1,3-thiazol-2-yl}acetamide] | 100 to 500 | –
CC(=O)Nc1nc(C)c(-c2nc(C(=O)C(C)(C)C)no2)s1 [Example 88] | 100 to 500 | –
CC(=O)Nc1nc(C)c(-c2nc(CCN3CCCC3=O)no2)s1 [Example 89] | 500 to 10000 | –
CC(=O)Nc1nc(C)c(-c2nc(C(=O)N3CC(O)C3)no2)s1 [Example 90] | 100 to 500 | –
CC(=O)Nc1nc(C)c(-c2nc(C(=O)NCC(C)O)no2)s1 (stereo not shown) [Example 91] | 100 to 500 | –
CC(=O)Nc1nc(C)c(-c2nc([C@H]3CCCO3)no2)s1 [Example 92] | 100 to 500 | –
CC(=O)Nc1nc(C)c(-c2nc(N3CCCC(O)C3)no2)s1 (stereo not shown) [Example 93] | < 100 | –
CC(=O)Nc1nc(C)c(-c2nc(CC(C)(C)S(=O)(=O)NC(C)(C)C)no2)s1 [Example 94] | 100 to 500 | –
CC(=O)Nc1nc(C)c(-c2nc(CC(C)(C)CF)no2)s1 [Example 95] | < 100 | –
CC(=O)Nc1nc(C)c(-c2nc(C(=O)NC3COC3)no2)s1 [Example 96] | 100 to 500 | –
CCC(O)C(C)(C)Cc1noc(-c2sc(NC(C)=O)nc2C)n1 (stereo not shown) [Example 97] | < 100 | –

SMILES | IC50 [1] [nM] | IC50 (read-out: IC50 value) [nM]
CC(=O)Nc1nc(C)c(-c2nc(/C=C(\C)CO)no2)s1 [Example 98] | < 100 | –
CC(=O)Nc1nc(C)c(-c2nc(Cn3cccn3)no2)s1 [Example 99] | 500 to 10000 | –
CC(=O)Nc1nc(C)c(-c2nc(CC(C)(C)C(O)c3ccccc3)no2)s1 (stereo not shown) [Example 100] | 100 to 500 | –
CC(=O)Nc1nc(C)c(-c2nc(C3CC3(C)C)no2)s1 (stereo not shown) [Example 101] | < 100 | –
CC(=O)Nc1nc(C)c(-c2nc(N3CC[C@H](O)C3)no2)s1 [Example 102] | 100 to 500 | –
CC(=O)Nc1nc(C)c(-c2nc(N3CC[C@@H](O)C3)no2)s1 [Example 103] | 100 to 500 | –
CCOC(=O)C(C)(C)Cc1noc(-c2sc(NC(C)=O)nc2C)n1 [Example 105] | 100 to 500 | –
CC(=O)Nc1nc(C)c(-c2nc(CC(C)(C)C(C)(C)O)no2)s1 [Example 106] | < 100 | –
CC(=O)Nc1nc(C)c(-c2nc(CC(C)(C)S(N)(=O)=O)no2)s1 [Example 107] | 100 to 500 | –
CC(=O)Nc1nc(C)c(-c2nc(CC(C)(C)C(=O)O)no2)s1 [Example 108] | < 100 | –
CC(=O)Nc1nc(C)c(-c2nc(CC(C)(C)C(N)=O)no2)s1 [Example 111] | < 100 | –
CC(=O)Nc1nc(C)c(-c2nc(C3CCCOC3)no2)s1 (stereo not shown) [Example 112] | < 100 | –
CC(=O)Nc1nc(C)c(-c2nc(-c3cc[nH]c(=O)c3)no2)s1 [Example 113] | 100 to 500 | –
Cc1nc(N)sc1-c1nc(C(C)(C)C)no1 [Example 114] | < 100 | –
Cc1nc(NC(=O)C(C)C)sc1-c1nc(-c2cccnc2)no1 [Example 115, 2-Methyl-N-{4-methyl-5-[3-(pyridin-3-yl)-1,2,4-oxadiazol-5-yl]-1,3-thiazol-2-yl}propanamide] | 100 to 500 | –
COCC(=O)Nc1nc(C)c(-c2nc(-c3cccnc3)no2)s1 [Example 116] | < 100 | –
Cc1nc(NC(=O)NCCC(=O)OC(C)(C)C)sc1-c1nc(-c2cccnc2)no1 [Example 117, Tert-butyl N-({4-methyl-5-[3-(pyridin-3-yl)-1,2,4-oxadiazol-5-yl]-1,3-thiazol-2-yl}carbamoyl)-β-alaninate] | < 100 | –
CCOC(=O)CCCC(=O)Nc1nc(C)c(-c2nc(-c3cccnc3)no2)s1 [Example 118] | < 100 | –
CCOC(=O)CCNC(=O)Nc1nc(C)c(-c2nc(-c3cccnc3)no2)s1 [Example 119] | < 100 | –
Cc1nc(NC(=O)NCCO)sc1-c1nc(-c2cccnc2)no1 [Example 120] | < 100 | –

SMILES | IC50 [1] [nM] | IC50 (read-out: IC50 value) [nM]
Cc1nc(NC(=O)NCCN2CCOCC2)sc1-c1nc(-c2cccnc2)no1 [Example 121] | < 100 | –
COCCNC(=O)Nc1nc(C)c(-c2nc(-c3cccnc3)no2)s1 [Example 122] | < 100 | –
Cc1nc(NC(N)=O)sc1-c1nc(-c2cccnc2)no1 [Example 124] | < 100 | –
Cc1nc(NC(=O)NCCCC(=O)OC(C)(C)C)sc1-c1nc(-c2cccnc2)no1 [Example 125] | < 100 | –
Cc1nc(NC(=O)NCC(=O)OC(C)(C)C)sc1-c1nc(-c2cccnc2)no1 [Example 126] | < 100 | –
Cc1nc(NC(=O)NCCCN(C)C)sc1-c1nc(-c2cccnc2)no1 [Example 127] | < 100 | –
COCCCC(=O)Nc1nc(C)c(-c2nc(-c3cccnc3)no2)s1 [Example 128] | < 100 | –
Cc1nc(NC(=O)OCCC(=O)OC(C)(C)C)sc1-c1nc(-c2cccnc2)no1 [Example 129, Tert-butyl-3-[({4-methyl-5-[3-(pyridin-3-yl)-1,2,4-oxadiazol-5-yl]-1,3-thiazol-2-yl}carbamoyl)oxy]propanoate] | < 100 | –
Cc1nc(NC(=O)NCCCOC(C)(C)C)sc1-c1nc(-c2cccnc2)no1 [Example 130] | < 100 | –
Cc1nc(NC(=O)NCCC(=O)N(C)C)sc1-c1nc(-c2cccnc2)no1 [Example 131] | < 100 | –
Cc1nc(NC(=O)NCCC(=O)NC(C)(C)C)sc1-c1nc(-c2cccnc2)no1 [Example 132] | < 100 | –
Cc1nc(NC(=O)NCCS(=O)(=O)NC(C)(C)C)sc1-c1nc(-c2cccnc2)no1 [Example 133] | < 100 | –
Cc1nc(NC(=O)NCCNC(=O)OC(C)(C)C)sc1-c1nc(-c2cccnc2)no1 [Example 134] | < 100 | –
Cc1nc(NC(=O)NCCOC(=O)C(C)(C)C)sc1-c1nc(-c2cccnc2)no1 [Example 135] | < 100 | –
Cc1nc(NC(=O)NCCC(=O)O)sc1-c1nc(-c2cccnc2)no1 [Example 136] | < 100 | –
Cc1nc(NC(=O)N2CCC(O)CC2)sc1-c1nc(-c2cccnc2)no1 [Example 137] | 500 to 10000 | –
Cc1nc(NC(=O)NCCN)sc1-c1nc(-c2cccnc2)no1 [Example 138] | < 100 | –
Cc1nc(NC(=O)NCCNC(=O)C(C)(C)C)sc1-c1nc(-c2cccnc2)no1 [Example 139] | < 100 | –
Cc1nc(NC(=O)NCCC(=O)OC(C)C)sc1-c1nc(-c2cccnc2)no1 [Example 140] | < 100 | –
Cc1nc(NC(=O)NCCC(=O)OC(C)(C)C)sc1-c1nc(-c2cncnc2)no1 [Example 141] | < 100 | –
